Values of other authors, collected in patent US20260256955A1, “LIQUID COMPOSITION OF COMPOUND I, PREPARATION METHOD THEREFOR, AND APPLICATION THEREOF” (BEIJING SINOTAU PHARMACEUTICAL TECHNOLOGY CO., LTD, priority 2022, published 2026).

Conditions: animals

CC(C)(C)n1ncc(OCc2cccc(Cn3cc(COCCOCC[18F])nn3)c2)c(Cl)c1=O [Compound I, 2-tert-butyl-4-chloro-5-((3-((4-((2-(2-fluoro[^18F]ethoxy)ethoxy)methyl)-1H-1,2,3-triazol-1-yl)methyl)benzyl)oxy)pyridazin-3(2H)-one]
cardiac uptake (15 minutes post-injection): high | liver uptake (15 minutes post-injection): low | heart-to-liver ratio (after 60 minutes): favorable
